PMC9465256, “Discovering monoacylglycerol lipase inhibitors by a combination of fluorogenic substrate assay and activity-based protein profiling” (Frontiers in Pharmacology, 2022)

Assays:
Format in all cases: biochemical
human MAGL = molecular target: T1, human MAGL (Homo sapiens, UniProt Q99685); assay: MAGL activity assay (AA-HNA fluorogenic substrate); details: 100 µM, AA-HNA substrate assay, Supplementary Table 1, read-out: MAGL Inhibition (%)
T1 construct: expressed in transfected cells; host or cells: HEK293T (transient transfection; membrane fraction)
T1 sequence (Q99685 1-303): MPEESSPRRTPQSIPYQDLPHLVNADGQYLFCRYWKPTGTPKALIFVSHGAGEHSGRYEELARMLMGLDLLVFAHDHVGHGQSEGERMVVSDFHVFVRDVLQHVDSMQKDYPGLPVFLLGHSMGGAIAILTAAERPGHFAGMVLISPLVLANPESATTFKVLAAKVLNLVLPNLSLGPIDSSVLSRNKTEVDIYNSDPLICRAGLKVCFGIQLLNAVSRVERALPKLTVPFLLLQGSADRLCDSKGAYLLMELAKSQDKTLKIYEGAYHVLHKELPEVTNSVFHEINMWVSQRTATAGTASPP
Method: (§1) HEK293T cells were cultured at 37°C under 5% CO2 in a DMEM medium with stable glutamine and phenolred, containing 10% fetal bovine serum (FBS, Gibco), penicillin, and streptomycin. The cells were passaged every 2–3 days by resuspension in the medium at ∼90% confluence. The membranes used in this study were prepared from transiently transfected HEK293T cells. Briefly, 1 day prior to transfection, ∼10^7 cells were seeded in 15 cm plates, and then the cells were transfected by the addition of a mixture of polyethyleneimine and plasmid DNA (3:1, 60, and 20 µg) in 2 ml of medium (without serum). Of note, the empty pcDNA3.1 vector was used in the Mock-control. After 24 h, the medium was removed and the cells were refreshed with fresh medium. After 72 h, the cells were harvested by suspending in 20 ml of medium, and the supernatant was removed by centrifugation for 10 min at 1,000 rpm. The cell pellet was flash frozen in liquid nitrogen and stored at −80°C until use. Subsequently, the cell pellets were suspended in lysis buffer (30 mM Tirs, pH 7.5, 1 mM MgCl2, 25 U/ml Benzonase), which was homogenized by sonication (3 × 10 bursts) and incubated for 30 min on ice. The membrane fractions overexpressing MAGL/ABHD6/ABHD12 were separated by ultracentrifuge (100,000 g, 30 min, 4 C). The protein concentration was determined with a Qubit protein assay (Invitrogen). The protein samples were quickly frozen in liquid nitrogen and stored at −80 C until use.
The MAGL activity assay is based on the hydrolysis of 2-arachidonoylglycerol-based fluorogenic substrate by MAGL-overexpressing membrane preparations from transiently transfected HEK293T cells. In brief, the reactions were performed in HEPES buffer (40 mM HEPES, pH 7.5, 0.1 mg/ml BSA) in black, flat bottom 96-well plates. […] After the incubation of the inhibitor-protein complex for 30 min, 10 µl of the fluorogenic substrate (AA-HNA, 200 µM) was added and fluorescence was measured in 1 min intervals for 30 min on a plate reader (BioTek). […] All the measurements were performed in N = 2, n = 2 for inhibitors and N = 2, n = 4 for controls with Z′ value ≥0.6. The slope is determined in 5–15 min for all the experiments.

human ABHD6 = molecular target: T2, human ABHD6 (Homo sapiens, UniProt Q9BV23); assay: ABHD6 activity assay (AA-HNA fluorogenic substrate); details: 100 µM, AA-HNA substrate assay, Supplementary Table 2, read-out: ABHD6 Inhibition (%)
T2 construct: expressed in transfected cells; host or cells: HEK293T (transient transfection; membrane fraction)
T2 sequence (Q9BV23 1-337): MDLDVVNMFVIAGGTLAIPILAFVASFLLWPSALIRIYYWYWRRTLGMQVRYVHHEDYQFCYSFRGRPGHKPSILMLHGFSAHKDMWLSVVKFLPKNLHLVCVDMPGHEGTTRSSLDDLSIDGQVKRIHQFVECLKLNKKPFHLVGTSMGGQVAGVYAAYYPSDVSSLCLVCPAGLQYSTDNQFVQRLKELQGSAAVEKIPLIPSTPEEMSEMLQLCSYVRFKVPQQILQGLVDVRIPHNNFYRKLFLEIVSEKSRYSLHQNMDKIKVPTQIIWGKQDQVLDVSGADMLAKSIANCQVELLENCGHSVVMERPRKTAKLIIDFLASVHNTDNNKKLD
Method: as §1
The MAGL activity assay is based on the hydrolysis of 2-arachidonoylglycerol-based fluorogenic substrate by MAGL-overexpressing membrane preparations from transiently transfected HEK293T cells. In brief, the reactions were performed in HEPES buffer (40 mM HEPES, pH 7.5, 0.1 mg/ml BSA) in black, flat bottom 96-well plates. The final protein concentration of membrane fractions from overexpressing human MAGL HEK293T cells was 12.5 μg/ml 5 µl of inhibitors were added from×40 concentrated DMSO stocks in the 96-well plate containing 145 µl assay buffer, followed by the addition of 40 µl of the protein (12.5 μg/ml). After the incubation of the inhibitor-protein complex for 30 min, 10 µl of the fluorogenic substrate (AA-HNA, 200 µM) was added and fluorescence was measured in 1 min intervals for 30 min on a plate reader (BioTek). Final assay concentrations: 12.5 μg/ml MAGL, […], and […] in the total volume of 200 µl. All the measurements were performed in N = 2, n = 2 for inhibitors and N = 2, n = 4 for controls with Z′ value ≥0.6. The slope is determined in 5–15 min for all the experiments.
The ABHD6 activity assay is based on the same principle as the MAGL activity assay described earlier, but with human ABHD6 overexpressing membrane preparations at a final protein concentration of 50 μg/ml and 200 µM AA-HNA. Other conditions are the same as those of the MAGL activity assay.

human ABHD12 = molecular target: T3, human ABHD12 (Homo sapiens, UniProt Q8N2K0); assay: ABHD12 activity by competitive ABPP with FP-TAMRA; details: 100 µM compound, competitive ABPP with probe FP-TAMRA (250 nM), read-out: ABHD12 Inhibition (%)
T3 construct: expressed in transfected cells; host or cells: HEK293T (transient transfection; membrane fraction)
T3 sequence (Q8N2K0 1-398): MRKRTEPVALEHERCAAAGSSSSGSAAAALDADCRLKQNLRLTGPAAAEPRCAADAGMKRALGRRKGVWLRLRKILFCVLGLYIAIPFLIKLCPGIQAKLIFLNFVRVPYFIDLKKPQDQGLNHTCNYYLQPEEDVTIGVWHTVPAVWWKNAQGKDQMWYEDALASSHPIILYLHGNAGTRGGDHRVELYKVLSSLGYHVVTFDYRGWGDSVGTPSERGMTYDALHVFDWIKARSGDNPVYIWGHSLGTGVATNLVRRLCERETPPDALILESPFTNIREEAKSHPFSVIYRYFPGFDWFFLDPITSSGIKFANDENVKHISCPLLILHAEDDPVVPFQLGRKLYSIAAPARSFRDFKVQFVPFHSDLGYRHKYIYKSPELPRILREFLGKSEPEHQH
Method: as §1
The ABHD12 activity assay is based on competitive activity-based protein profiling (ABPP) with human ABHD12 overexpressing membrane fractions. Briefly, the membrane proteome (1 mg/ml, 20 µl) was incubated at room temperature with 0.5 µl DMSO (vehicle) or inhibitor for 30 min. Subsequently, the samples were treated with the activity-based probe FP-TAMRA (250 nM, final concentration) for 20 min. The reactions were then quenched by 10 µl sample buffer (×4) (final concentrations: 60 mM Tris, pH 6.8, 2% (w/v) SDS, 10% (v/v) glycerol, 5% (v/v) β-mercaptoethanol, 0.01% (v/v) bromophenol blue). The samples were directly loaded and resolved on SDS-PAGE gel (10% acrylamide), which were then scanned using a ChemiDoc MP system (Cy3 settings, BioRad).

`COc1ccc([C@@H]2CC(=O)c3c(O)cc(O[C@@H]4O[C@H](CO)[C@@H](O)[C@H](O)[C@H]4O[C@@H]4O[C@@H](C)[C@H](O)[C@@H](O)[C@H]4O)cc3O2)cc1O` [compound 57, Neohesperidin] was tested, and the activity (human MAGL) was 86.8%, the activity (human ABHD6) was 98.7% and the activity (human ABHD12) was 75.6%.
With `COc1ccc(-c2cc(=O)c3c(OC)c(OC)c(OC)c(OC)c3o2)cc1OC` [compound 58, Nobiletin] the activity at 100 µM (human MAGL) was 83.4%, the activity at 100 µM (human ABHD6) was 100% and the activity at 100 µM (human ABHD12) was 75.6%.
`CC1(C)CC[C@]2(C(=O)O)CC[C@]3(C)C(=CC[C@@H]4[C@@]5(C)CC[C@H](O)C(C)(C)[C@@H]5CC[C@]43C)[C@@H]2C1` [compound 59, Oleanolic Acid] gave an activity at 100 µM (human MAGL) of 130%, an activity at 100 µM (human ABHD6) of 98.5% and an activity at 100 µM (human ABHD12) of 57.7%.
Compound `C=C1C(=O)[C@]23[C@H](O)[C@H]1CC[C@H]2[C@@]12CO[C@]3(O)[C@@H](O)[C@@H]1C(C)(C)CC[C@@H]2O` [compound 60, Oridonin] has an activity at 100 µM (human MAGL) of 59.6%, an activity at 100 µM (human ABHD6) of 102% and an activity at 100 µM (human ABHD12) of 74.6%.
For `O=C(O)c1cc(=O)[nH]c(=O)[nH]1` [compound 61, Orotic acid], the activity at 100 µM (human MAGL) was 101%, the activity at 100 µM (human ABHD6) was 113% and the activity at 100 µM (human ABHD12) was 97.2%.
For `COc1ccc2ccc(=O)oc2c1CC=C(C)C` [compound 62, Osthole], the activity at 100 µM (human MAGL) was 94.5%, the activity at 100 µM (human ABHD6) was 112% and the activity at 100 µM (human ABHD12) was 106%.
In the case of `O=C1CCC[C@@H]2[C@H]3CCC[N+]4([O-])CCC[C@@H](CN12)[C@@H]34` (stereo partly drawn) [compound 63, Oxymatrine], the activity at 100 µM (human MAGL) is reported as 99.9%, the activity at 100 µM (human ABHD6) is reported as 102% and the activity at 100 µM (human ABHD12) is reported as 91.3%.
Work on `C=C1C(=O)O[C@H]2[C@H]1CC/C(C)=C/CC[C@@]1(C)O[C@@H]21` [compound 65, (-)-Parthenolide] yielded an activity (human MAGL) of 87.5%, an activity (human ABHD6) of 105% and an activity (human ABHD12) of 92.4%.
`O=C(CCc1ccc(O)cc1)c1c(O)cc(O)cc1O[C@@H]1O[C@H](CO)[C@@H](O)[C@H](O)[C@H]1O` [compound 67, Phlorizin] was tested, and the activity at 100 µM (human MAGL) was 75.9%, the activity at 100 µM (human ABHD6) was 116% and the activity at 100 µM (human ABHD12) was 96.7%.
`O=C(/C=C/C=C/c1ccc2c(c1)OCO2)N1CCCCC1` [compound 68, Piperine] showed an activity at 100 µM (human MAGL) of 99.7%, an activity at 100 µM (human ABHD6) of 112% and an activity at 100 µM (human ABHD12) of 90.8%.
Work on `O=c1c(-c2ccc(O)cc2)coc2c([C@@H]3O[C@H](CO)[C@@H](O)[C@H](O)[C@H]3O)c(O)ccc12` [compound 69, Puerarin] yielded an activity at 100 µM (human MAGL) of 94.8%, an activity at 100 µM (human ABHD6) of 119% and an activity at 100 µM (human ABHD12) of 104%.
`O=c1c2ccccc2nc2n1CCc1c-2[nH]c2ccccc12` [compound 71, Rutaecarpine] gave an activity at 100 µM (human MAGL) of 99.2%, an activity at 100 µM (human ABHD6) of 111% and an activity at 100 µM (human ABHD12) of 97%.
`C[C@@H]1O[C@@H](OC[C@H]2O[C@@H](Oc3c(-c4ccc(O)c(O)c4)oc4cc(O)cc(O)c4c3=O)[C@H](O)[C@@H](O)[C@@H]2O)[C@H](O)[C@H](O)[C@H]1O` [compound 72, Rutin] was tested, and the activity at 100 µM (human MAGL) was 75.9%, the activity at 100 µM (human ABHD6) was 119% and the activity at 100 µM (human ABHD12) was 84.3%.
For Methyl-Hesperidin [compound 50], the activity (human MAGL) was 62.5%, the activity (human ABHD6) was 94.2% and the activity (human ABHD12) was 76.8%.
In the case of Myricitrin [compound 53], the percent inhibition (human MAGL) is reported as 93.1%, the percent inhibition of ABHD6 (human ABHD6) is reported as 105% and the percent inhibition (human ABHD12) is reported as 70%.
